Reference: patent US20210145000A1, “WEED CONTROL FROM APPLICATIONS OF PYRIDINE CARBOXYLIC ACID HERBICIDES AND ACETYL CoA CARBOXYLASE (ACCase) INHIBITORS” (Dow AgroSciences LLC, priority 2018, published 2021)

Legend:
Assay in all cases: Postemergence herbicidal activity, greenhouse, visual injury
Assay type in all cases: in vivo
[1] = tested on: kochia (Kochia scoparia, KCHSC); conditions: Clethodim 70 g ai/ha
Protocol: (§1) Seeds of the desired test plant species were planted in Sun Gro MetroMix® 306 planting mixture, which typically has a pH of 6.0 to 6.8 and an organic matter content of about 30 percent, in plastic pots with a surface area of 103.2 square centimeters (cm^2). When required to ensure good germination and healthy plants, a fungicide treatment and/or other chemical or physical treatment was applied. The plants were grown for 7-36 days (d) in a greenhouse with an approximate 14-hour (h) photoperiod which was maintained at about 23° C. during the day and 22° C. during the night. Nutrients and water were added on a regular basis and supplemental lighting was provided with overhead metal halide 1000-Watt lamps as necessary. The plants were employed for testing when they reached the second or third true leaf stage.
(§2) An emulsifiable concentrate (EC) formulation containing Compound 1 at 100 gai/L was prepared by combining Compound 1 with 1-butyl-2-pyrrolidinone (Tamisolve NxG; 360.5 g/L), benzyl acetate (544.6 g/L) and Agnique MBL 520L surfactant (52.9 g/L). […] The concentrated stock solution was diluted with an aqueous mixture of 1.5% v/v of Agri-dex crop oil concentrate to provide the appropriate application rates. Compound requirements are based upon a 12 milliliter (mL) application volume at a rate of 187 liters per hectare (L/ha). Spray solutions of the experimental compound mixtures were prepared by adding the stock solutions to the appropriate amount of dilution solution to form a 12 mL spray solution in two-way combinations. Formulated compounds were applied to the plant material with an overhead Mandel track sprayer equipped with 8002E nozzles calibrated to deliver 187 L/ha over an application area of 0.503 square meters (m^2) at a spray height of 18 inches (43 centimeters (cm)) above average plant canopy. Control plants were sprayed in the same manner with the solvent blank. Application rates for component (a) are in g ae/ha, and application rates for component (b) are in g ai/ha.
(§3) The treated plants and control plants were placed in a greenhouse as described above and watered by sub-irrigation to prevent wash-off of the test compounds. After 20-22 d, the condition of the test plants as compared with that of the control plants was determined visually and scored on a scale of 0 to 100 percent where 0 corresponds to no injury and 100 corresponds to complete kill. […] The Colby method was used to determine the herbicidal effects expected from the mixtures.

[2] = tested on: poinsettia (Euphorbia heterophylla, EPHHL); conditions: Clethodim 70 g ai/ha
Protocol: as §1, §2, §3

[3] = tested on: chickweed (Stellaria media, STEME); conditions: post-emergence, read-out: Effect (% visual injury) Obs
Protocol: as §1, §2, §3

[4] = tested on: winter rape (Brassica napus, BRSNW); conditions: post-emergence, read-out: Effect (% visual injury) Obs
Protocol: as §1, §2, §3

[5] = tested on: sunflower (Helianthus annuus, HELAN); conditions: post-emergence, read-out: Effect (% visual injury) Obs
Protocol: (§4) The plants were grown for 7-36 days (d) in a greenhouse with an approximate 14-hour (h) photoperiod which was maintained at about 23° C. during the day and 22° C. during the night. Nutrients and water were added on a regular basis and supplemental lighting was provided with overhead metal halide 1000-Watt lamps as necessary. The plants were employed for testing when they reached the second or third true leaf stage.
(§5) Spray solutions of the experimental compound mixtures were prepared by adding the stock solutions to the appropriate amount of dilution solution to form a 12 mL spray solution in two-way combinations. […] Control plants were sprayed in the same manner with the solvent blank. Application rates for component (a) are in g ae/ha, and application rates for component (b) are in g ai/ha.
as §3

[6] = tested on: common lambsquarters (Chenopodium album L., CHEAL); conditions: post-emergence, read-out: Effect (% visual injury) Obs
Protocol: as §4, §5, §3

[7] = tested on: rice (Oryza sativa, ORYSA); conditions: post-emergence, read-out: Effect (% visual injury) Obs
Protocol: as §4, §5, §3

[8] = tested on: large crabgrass (Digitaria sanguinalis, DIGSA); conditions: post-emergence, read-out: Effect (% visual injury) Obs
Protocol: as §4, §5, §3

[9] = tested on: pigweed (Amaranthus retroflexus, AMARE); conditions: post-emergence, read-out: Effect (% visual injury) Obs
Protocol: as §4, §5, §3

[10] = tested on: wild buckwheat (Polygonum convolvulus, POLCO); conditions: Fallopia convolvulus, post-emergence, read-out: Effect (% visual injury) Obs
Protocol: as §4, §5, §3

[11] = tested on: wild pansy (Viola tricolor, VIOTR); conditions: post-emergence, read-out: Effect (% visual injury) Obs
Protocol: as §4, §5, §3

[12] = tested on: giant foxtail (Setaria faberi, SETFA); conditions: post-emergence, read-out: Effect (% visual injury) Obs
Protocol: as §4, §5, §3

[13] = tested on: soybean (Glycine max, GLXMA); conditions: post-emergence, read-out: Effect (% visual injury) Obs
Protocol: as §4, §5, §3

[14] = tested on: barnyardgrass (Echinochloa crus-galli, ECHCG); conditions: post-emergence, read-out: Effect (% visual injury) Obs
Protocol: as §4, §5, §3

[15] = tested on: blackgrass (Alopecurus myosuroides, ALOMY); conditions: post-emergence, read-out: Effect (% visual injury) Obs
Protocol: as §4, §5, §3

maize (Zea mays, ZEAMX) = conditions: post-emergence, read-out: Effect (% visual injury) Obs
Protocol: as §4, §5, §3

[16] = tested on: velvetleaf (Abutilon theophrasti, ABUTH); conditions: post-emergence, read-out: Effect (% visual injury) Obs
Protocol: as §4, §5, §3

[17] = tested on: wild oat (Avena fatua, AVEFA); conditions: post-emergence, read-out: Effect (% visual injury) Obs
Protocol: as §4, §5, §3

[18] = tested on: winter wheat (Triticum aestivum, TRZAW); conditions: post-emergence, read-out: Effect (% visual injury) Obs
Protocol: as §4, §5, §3

[19] = tested on: grain sorghum (Sorghum vulgare, SORVU); conditions: post-emergence, read-out: Effect (% visual injury) Obs
Protocol: as §4, §5, §3

CCSC(C)CC1CC(=O)C(C(CC)=NOC/C=C/Cl)=C(O)C1 (stereo not shown) [Clethodim]
Effect (% visual injury) Obs [1]: 0% | Effect (% visual injury) Obs [2]: 30% | pest or weed control at 70 g/ha [3]: 10% | plant injury at 70 g/ha [4]: 5% | plant injury at 70 g/ha [5]: 0% | pest or weed control at 70 g/ha [6]: 5% | plant injury at 70 g/ha [7]: 90% | pest or weed control at 70 g/ha [8]: 70% | pest or weed control at 70 g/ha [9]: 5% | pest or weed control at 70 g/ha [10]: 10% | pest or weed control at 70 g/ha [11]: 5% | pest or weed control at 70 g/ha [12]: 85% | plant injury at 70 g/ha [13]: 10% | pest or weed control at 70 g/ha [14]: 100% | pest or weed control at 70 g/ha [15]: 93% | plant injury at 70 g/ha (maize (Zea mays, ZEAMX)): 100% | pest or weed control at 70 g/ha [16]: 0% | pest or weed control at 70 g/ha [17]: 97% | plant injury at 70 g/ha [18]: 70%

CCCCOC(=O)[C@@H](C)Oc1ccc(Oc2ccc(C#N)cc2F)cc1 [Cyhalofop-butyl]
plant injury at 180 g/ha [4]: 0% | plant injury at 180 g/ha [5]: 0% | plant injury at 180 g/ha [7]: 0% | pest or weed control at 180 g/ha [8]: 85% | pest or weed control at 180 g/ha [9]: 0% | pest or weed control at 180 g/ha [10]: 0% | pest or weed control at 180 g/ha [11]: 0% | pest or weed control at 180 g/ha [12]: 90% | pest or weed control at 180 g/ha [14]: 100% | plant injury at 180 g/ha (maize (Zea mays, ZEAMX)): 95% | pest or weed control at 180 g/ha [16]: 0% | pest or weed control at 180 g/ha [17]: 90% | plant injury at 180 g/ha [19]: 95% | plant injury at 180 g/ha [18]: 0%

COC(=O)C(C)Oc1ccc(Oc2ccc(Cl)cc2Cl)cc1 (stereo not shown) [Diclofop-methyl]
pest or weed control at 280 g/ha [3]: 0% | plant injury at 280 g/ha [4]: 0% | plant injury at 280 g/ha [5]: 0% | pest or weed control at 280 g/ha [6]: 0% | plant injury at 280 g/ha [7]: 40% | pest or weed control at 280 g/ha [9]: 0% | pest or weed control at 280 g/ha [10]: 0% | pest or weed control at 280 g/ha [11]: 0% | pest or weed control at 280 g/ha [12]: 60% | pest or weed control at 280 g/ha [14]: 100% | pest or weed control at 280 g/ha [16]: 0% | plant injury at 280 g/ha [18]: 0%

CCOC(=O)[C@@H](C)Oc1ccc(Oc2nc3ccc(Cl)cc3o2)cc1 [Fenoxaprop-P-ethyl]
plant injury at 46 g/ha ([4]; Fenoxaprop-P-ethyl 46 g ai/ha): 0% | plant injury at 46 g/ha ([5]; Fenoxaprop-P-ethyl 46 g ai/ha): 0% | pest or weed control at 46 g/ha ([6]; Fenoxaprop-P-ethyl 46 g ai/ha): 0% | pest or weed control at 46 g/ha ([8]; Fenoxaprop-P-ethyl 46 g ai/ha): 100% | pest or weed control at 46 g/ha ([10]; Fenoxaprop-P-ethyl 46 g ai/ha): 0% | pest or weed control at 46 g/ha ([11]; Fenoxaprop-P-ethyl 46 g ai/ha): 0% | pest or weed control at 46 g/ha ([12]; Fenoxaprop-P-ethyl 46 g ai/ha): 100% | pest or weed control at 46 g/ha ([14]; Fenoxaprop-P-ethyl 46 g ai/ha): 100% | pest or weed control at 46 g/ha ([15]; Fenoxaprop-P-ethyl 46 g ai/ha): 0% | plant injury at 46 g/ha (maize (Zea mays, ZEAMX); Fenoxaprop-P-ethyl 46 g ai/ha): 100% | pest or weed control at 46 g/ha ([16]; Fenoxaprop-P-ethyl 46 g ai/ha): 0% | pest or weed control at 46 g/ha ([17]; Fenoxaprop-P-ethyl 46 g ai/ha): 95% | plant injury at 46 g/ha ([18]; Fenoxaprop-P-ethyl 46 g ai/ha): 0%
